Source: patent publication US9290440B2, “Bicyclic compound” (TOA EIYO LTD., priority 2012, dated 2016)
Like-named read-outs stand apart in the source and are kept apart here.

Legend:
[1] = test system: abdominal aorta ring specimen; experiment: Evaluation of blood vessel relaxing function (phenylephrine-contracted abdominal aorta ring); conditions: relaxation of rat abdominal aorta contracted with 1 μmol/L phenylephrine; without vs with 10 μmol/L ODQ
Procedure: The representative compounds of the present invention were evaluated by blood vessel relaxing function according to the following Test Example. In the assay, bleeding from the upper part of a heart of a rat (male, SD) was performed under anesthesia with pentobarbital (30 mg/kg) and then abdominal aorta was extracted. The connecting tissue adhered around blood vessel was removed from the abdominal aorta in an ice-cooled Krebs-Henseleit solution (KH solution) (118 mmol/L sodium chloride, 4.7 mmol/L potassium chloride, 1.2 mmol/L magnesium sulfate, 1.2 mmol/L potassium dihydrogen phosphate, 25 mmol/L sodium hydrogen carbonate, 2.5 mmol/L calcium chloride, and 10 mmol/L glucose, pH 7.4). After that, a ring specimen with length of 2 mm was prepared and fixed in 5 mL organ bath filled with a KH solution. The KH solution was kept at 37° C. and aerated with a mixture gas of 95% O2 and 5% CO2. The specimen was stabilized for 1 hour with static tension of 1 g. The KH solution was exchanged twice during that time. The tension on the specimen was recorded on a multi-channel recorder via pickup and amplifier. After the stabilization of the specimen, contraction was caused by using 1 μmol/L phenylephrine (Phe), and cumulative administration of each compound (0.001, 0.01, 0.03, 0.1, 0.3, 1, 3, 10, 30, 100, 1000, 10000 nmol/L) was performed. For the evaluation of a case in which 1H-1,2,4-oxadiazole-(4,3a)-quinoxalin-1-one (ODQ) is contained, 10 μmol/L ODQ was added 10 minutes before the Phe addition, and the same evaluation as above was performed.
EC50 value was calculated using four-parameter logistics model using Assay Explorer (Accelrys). The test compound solution was dissolved in DMSO such that the concentration of each test compound is 1000 times the final concentration.

[2] = biological target: T1, human sGC α subunit and β subunit (Homo sapiens, UniProt Q02153); experiment: Maximum effect of sGC activating function (Ca2+ fluorescence in CHO-K1 cells expressing human sGC and mouse CNGA2); assay type: cell-based; conditions: increase ratio of sGC activity vs control solution at 10 μmol/L test compound
T1 construct: expressed in transfected cells
T1 sequence (Q02153 1-619): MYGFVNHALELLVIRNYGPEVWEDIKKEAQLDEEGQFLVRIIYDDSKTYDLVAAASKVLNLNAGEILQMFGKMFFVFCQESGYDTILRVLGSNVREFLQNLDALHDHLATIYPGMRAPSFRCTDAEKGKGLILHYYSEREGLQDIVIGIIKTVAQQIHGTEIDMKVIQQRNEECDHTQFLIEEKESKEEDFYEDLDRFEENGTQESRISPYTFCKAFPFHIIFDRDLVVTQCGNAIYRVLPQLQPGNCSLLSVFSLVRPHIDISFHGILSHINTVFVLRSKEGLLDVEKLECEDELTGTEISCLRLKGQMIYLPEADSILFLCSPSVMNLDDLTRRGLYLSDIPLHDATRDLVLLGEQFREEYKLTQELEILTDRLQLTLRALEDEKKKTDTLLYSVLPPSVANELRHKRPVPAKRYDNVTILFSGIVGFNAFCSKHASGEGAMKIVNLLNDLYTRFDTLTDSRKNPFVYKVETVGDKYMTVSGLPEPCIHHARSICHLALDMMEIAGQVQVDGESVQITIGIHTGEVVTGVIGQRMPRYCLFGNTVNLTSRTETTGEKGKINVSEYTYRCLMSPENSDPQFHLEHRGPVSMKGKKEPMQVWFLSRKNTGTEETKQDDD
T1 sequence (Q02108 1-690 partner): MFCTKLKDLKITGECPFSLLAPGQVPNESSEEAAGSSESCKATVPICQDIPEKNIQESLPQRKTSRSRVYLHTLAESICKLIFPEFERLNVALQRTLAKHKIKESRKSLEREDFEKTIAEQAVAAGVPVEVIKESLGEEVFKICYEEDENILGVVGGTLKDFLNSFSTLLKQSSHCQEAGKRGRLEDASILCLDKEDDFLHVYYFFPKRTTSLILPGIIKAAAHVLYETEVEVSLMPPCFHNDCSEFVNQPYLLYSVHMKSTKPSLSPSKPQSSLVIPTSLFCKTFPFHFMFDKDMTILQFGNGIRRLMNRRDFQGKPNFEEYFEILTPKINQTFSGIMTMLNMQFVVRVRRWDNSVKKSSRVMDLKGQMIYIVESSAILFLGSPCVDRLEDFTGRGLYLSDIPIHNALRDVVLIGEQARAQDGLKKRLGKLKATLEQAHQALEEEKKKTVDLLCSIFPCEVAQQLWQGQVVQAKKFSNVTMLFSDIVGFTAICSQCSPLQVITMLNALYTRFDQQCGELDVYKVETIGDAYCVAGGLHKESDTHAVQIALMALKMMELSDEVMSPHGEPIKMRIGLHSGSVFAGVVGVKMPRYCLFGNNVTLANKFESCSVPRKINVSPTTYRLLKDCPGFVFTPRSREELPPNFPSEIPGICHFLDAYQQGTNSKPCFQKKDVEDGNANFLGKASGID
Procedure: (§1) For the assay, Chinese hamster ovary cells (CHO-K1 cells) in which human sGC α subunit and β subunit and mouse cyclic nucleotide gated channel (CNGA2) are stably expressed were used.
(§2) CHO-K1 cells in which human sGC and mouse CNGA2 are stably expressed were cultured at 37° C. in F-12 medium containing 10% (v/v) fetal bovine serum (FBS), penicillin (100 U/mL), streptomycin (100 μg/mL), G418 (250 μg/mL), and zeocin (250 μg/mL). The cells were suspended in the culture medium and seeded onto a 96-well plate, and then cultured at 37° C. for 24 hours. After washing with assay buffer 1 (140 mmol/L sodium chloride, 5 mmol/L potassium chloride, 0.5 mmol/L magnesium chloride, 0.01 mmol/L calcium chloride, 10 mmol/L glucose, 0.4 mmol/L magnesium sulfate, 10 mmol/L 4-(2-hydroxyethyl)piperazin-1-ylethane sulfonic acid, and 125 μmol/L sulfinpyrazone, pH 7.4), an indicator solution in which FURA2-AM as a fluorescent Ca^2+ indicator is dissolved at concentration of 5 μmol/L in assay buffer 1 was added followed by culture for 60 minutes at 37° C. The indicator solution was removed. After washing with assay buffer 1, the test compound solution was added and incubated for 10 minutes at room temperature. The plate was placed in a fluorometer (Flex Station II, Molecular Devices, LLC), and then the intracellular calcium concentration was measured as fluorescence intensity ratio which is obtained from each excitation wavelength (excitation wavelength of 340 nm and 380 nm and detection wavelength of 510 nm).
(§3) The test compound solution was prepared by dissolving each of the test compounds in DMSO to a concentration of 10 mmol/L, and then adding the assay buffer 2 (140 mmol/L sodium chloride, 5 mmol/L potassium chloride, 0.5 mmol/L magnesium chloride, 1 mmol/L calcium chloride, 10 mmol/L glucose, 0.4 mmol/L magnesium sulfate, 10 mmol/L 4-(2-hydroxyethyl)piperazin-1-ylethane sulfonic acid, 125 μmol/L sulfinpyrazone, 100 μmol/L isobutylmethylxanthine, 10 μmol/L 1H-[1,2,4]-oxadiazole[4,3-a]quinoxalin-1-one (hereinbelow, ODQ), pH 7.4) for dilution to have test concentration of 10 μmol/L. For the evaluation of a case in which ODQ is not contained, the same evaluation was performed except that ODQ is excluded from assay buffer 2. As a control solution, a DMSO solution was used instead of the test compound solution.
(§4) The activity of the test compound corresponds to the increase ratio (%) of the sGC activity at the time of adding the test compound solution with respect to the sGC activity at the time of adding the control solution, and it was calculated by dividing the fluorescence intensity ratio at the time of adding the test compound by the fluorescence intensity ratio of the control solution and subtracting the sGC activity (100%) at the time of adding the control solution.
In this assay, intracellular cGMP concentration increases as sGC is activated, and according to opening of CNGA2 following the increase of cGMP, intracellular Ca^2+ concentration increases. Thus, SGC activation can be measured by following the change in intracellular Ca^2+ concentration. […] Thus, in the absence of ODQ, the maximum sGC activating function including the heme-dependent activation can be evaluated while the heme-independent sGC activating function can be evaluated in the presence of ODQ.

[3] = biological target: T1, human sGC α subunit and β subunit; experiment: Heme-independent property of sGC activating function (EC50 ratio, CHO-K1 cells expressing human sGC and mouse CNGA2); assay type: cell-based; conditions: EC50 in the absence of ODQ divided by EC50 in the presence of ODQ, sGC activation
Procedure: as §1, §2, §3, §4
For the representative compounds, activity was measured in the same manner as Test Example 1 at each test concentration of 0.0001, 0.001, 0.003, 0.01, 0.03, 0.1, 1, and 10 μmol/L.
The degree of heme-independent property of each test compound with regard to sGC activating function was obtained by dividing, for EC50 measured from the concentration-activation curve which has been established from the above, EC50 in the absence of ODQ by EC50 in the presence of ODQ. Specifically, the smaller the EC50 ratio is, the less the change in sGC activating function is, the change in the function being caused by the presence or absence of ODQ, and thus it is found to be more heme-independent.
EC50 value was obtained by measuring the activity of each compound to be tested at concentrations of 0.0001, 0.001, 0.003, 0.01, 0.03, 0.1, 1, and 10 μmol/L and performing the calculation using four-parameter logistics model using Assay Explorer (Accelrys).

[4] = ODQ not contained, read-out: Emax (%) ODQ− (Heme-dependent)
[5] = with 10 μmol/L ODQ, read-out: Emax (%) ODQ+ (Heme-independent)

SMILES	EC50 Ratio (ODQ−/ODQ+) [1]	Emax at 10 µM [2, 4] [%]	Emax at 10 µM [2, 5] [%]	EC50 Ratio (ODQ−/ODQ+) [3]
C[C@@H](Oc1ccccc1CCN(CCCCC(=O)O)C1CCCc2cc(C(=O)O)ccc21)c1ccc(C(C)(C)C)cc1 (stereo partly drawn) [Example 45, 5-{N-[2-[2-[(1R)-1-(4-tert-Butylphenyl)ethoxy]phenyl]ethyl]-N-(4-carboxybutyl)amino}-5,6,7,8-tetrahydronaphthalene-2-carboxylic acid]	3.5	95.3	121	–
O=C(O)CCCCN(CCc1ccccc1OCc1ccc2c(c1)CCC2)C1CCCc2cc(C(=O)O)ccc21 (stereo not drawn) [Example 46, 5-{N-(4-Carboxybutyl)-N-[2-[2-(indane-5-ylmethoxy)phenyl]ethyl]amino}-5,6,7,8-tetrahydronaphthalene-2-carboxylic acid]	5.2	81.3	123	–
CC(C)c1ccc(COc2ccccc2CCN(CCCCC(=O)O)C2CCCc3cc(C(=O)O)ccc32)cc1 (stereo not drawn) [Example 43, 5-{N-(4-Carboxybutyl)-N-[2-[2-(4-isopropylbenzyloxy)phenyl]ethyl]amino}-5,6,7,8-tetrahydronaphthalene-2-carboxylic acid]	5.5	90.3	107	–
O=C(O)CCCCN(CCc1ccccc1OCc1ccc(OCc2ccccc2)cc1)C1CCCc2cc(C(=O)O)ccc21 (stereo not drawn) [Example 14, 5-{N-[2-[2-(4-Benzyloxybenzyloxyl)phenyl]ethyl]-N-(4-carboxybutyl)amino}-5,6,7,8-tetrahydronaphthalene-2-carboxylic acid]	–	99.1	101	1.73
O=C(O)CCCCN(CCc1ccccc1OCc1ccc(/C=C/C2CCCCC2)cc1)C1CCCc2cc(C(=O)O)ccc21 (stereo not drawn) [Example 23, 5-{N-(4-Carboxybutyl)-N-[2-[2-[4-((E)-2-cyclohexylethenyl)benzyloxy]phenyl]ethyl]amino}-5,6,7,8-tetrahydronaphthalene-2-carboxylic acid]	–	126	104	1.15
O=C(O)CCCCN(CCc1ccccc1OCc1ccc(CCc2ccccc2)cc1)C1CCOc2cc(C(=O)O)ccc21 (stereo not drawn) [Example 4, 4-{N-(4-Carboxybutyl)-N-[2-[2-[4-(2-phenylethyl)benzyloxy]phenyl]ethyl]amino}chromane-7-carboxylic acid]	–	114	109	2.85
O=C(O)CCCCN(CCc1ccccc1OCc1ccc(CCc2ccccc2)cc1)C1CCCc2cc(C(=O)O)ccc21 (stereo not drawn) [Example 2, 5-{N-(4-Carboxybutyl)-N-[2-[2-[4-(2-phenylethyl)benzyloxy]phenyl]ethyl]amino}-5,6,7,8-tetrahydronaphthalene-2-carboxylic acid]	–	97.5	109	2.67
O=C(O)CCCCN(CCc1ccccc1OCc1ccc(CCc2ccccc2)cc1)C1COCc2cc(C(=O)O)ccc21 (stereo not drawn) [Example 8, 4-{N-(4-Carboxybutyl)-N-[2-[2-[4-(2-phenylethyl)benzyloxy]phenyl]ethyl]amino}-isochromane-7-carboxylic acid]	–	130	102	1.80
O=C(O)CCCCN(CCc1ccccc1OCc1ccc(CCc2ccccc2)cc1)C1CCc2cc(C(=O)O)ccc21 (stereo not drawn) [Example 1, 1-{N-(4-Carboxybutyl)-N-[2-[2-[4-(2-phenylethyl)benzyloxy]phenyl]ethyl]amino}indane-5-carboxylic acid]	–	85.6	103	2.86
